{"source": "patent US6043217A", "about": "“Amide derivative of amythiamicin” (Zaidan Hojin Biseibutsu Kagaku Kenyu Kai, priority 1996, dated 2000)", "origin": "cited, not measured here", "conditions": "background statement on known amythiamicins; cited from earlier work", "data": [{"smiles": "CNC(=O)CC1NC(=O)c2csc(n2)-c2ccc(-c3nc(C4=NC(C(=O)N5CCCC5C(N)=O)CO4)cs3)nc2-c2csc(n2)-c2csc(n2)C(C(C)C)NC(=O)CNC(=O)c2csc(n2)C(C(C)C)NC(=O)c2nc1sc2C", "note": "(centres unmarked) [Amythiamicin A]", "values": [{"measurement": "solubility in water", "result": "hardly soluble in water"}]}, {"smiles": "CNC(=O)CC1NC(=O)c2csc(n2)-c2ccc(-c3nc(C(=O)OCC4NC(=O)C5CCCN5C4=O)cs3)nc2-c2csc(n2)-c2csc(n2)C(C(C)C)NC(=O)CNC(=O)c2csc(n2)C(C(C)C)NC(=O)c2nc1sc2C", "note": "(centres unmarked) [Amythiamicin C, amythiamicin C]", "values": [{"measurement": "solubility in water", "result": "hardly soluble in water"}]}]}
